Reference: US5480905A, “Benzodioxane derivatives” (Chugai Seiyaku Kabushiki Kaisha, priority 1991, dated 1996)

System: S.D. line male rats
Assay: Antianxiety effect, water drinking under punishment (Vogel)
Type: in vivo, rat
Parameters: Antianxiety effect / Antianxiety effect, longevity: unit not given here
Conditions: for change in vivo at 20 mg/kg: Rattus norvegicus, po, read-out: Antianxiety effect, Efficacy
Experimental: Antianxiety test was conducted in accordance with a method adapted from the method of Vogel et al. (Psychopharmacol., 21, 1-7, 1971). Stated more specifically, S.D. line male rats weighing 250-300 g were entirely kept from water for 24 h and then placed in a concrete experimental box. […] The bottom of the box was made of a stainless steel grid, from which electric shock (0.2 mA, 0.5 sec) could be applied to the limbs of rats. The test schedule was as follows: first, the rats were acclimatized to the experimental box and trained for drinking water; this was done for 3 min without electric shock. The quantity of water drunk by the rats was then measured (under non-punishment). Then, the rats were kept from drinking water for 24 h. Thereafter, the quantity of water drunk by each rat was measured (before administration of test compound) under such conditions that an electric shock was applied each time a rat drank one water drop (under punishment).Thirty minutes later, a test drug was administered perorally and after an additional 20 min, the quantity of water drunk by each rat was again measured under punishment (after administration of test compound). The quantity of water drunk by rats will decrease under punishment but it is known that the initial level can be restored by administering an antianxiety agent.
The antianxiety effect of a test compound was calculated by the following formula: [formula]
The procedure of Test Examples 2 and 3 were repeated except that test compounds were administered perorally in a dose of 10 mg/kg.
The procedures of Test Example 2 and 3 were repeated, except that test compounds were administered perorally in a dose of 20 mg/kg to check the longevity of their antianxiety and antidepressant effects for 0.5, 2 and 4 h.

[1] = peroral 20 mg/kg, 0.5 h after administration
[2] = peroral 20 mg/kg, 2.0 h after administration
[3] = peroral 20 mg/kg, 4.0 h after administration

**Q.** What does the source list for Cc1cccc2c1OC(CNCCNC(=O)C13CC4CC(CC(C4)C1)C3)CO2 (centres unmarked) [Compound 1, N-{[2-(8-methyl-1,4-benzodioxan-2-ylmethyl)amino]ethyl}tricyclo[3,3,1,1^3, ^7]decane-1-carboxyamide]?
**A.** change in vivo at 20 mg/kg (peroral 20 mg/kg): 85.4 ± 10.3%; Antianxiety effect (peroral 10 mg/kg): 42.4 ± 2.1; Antianxiety and antidepressant effects (peroral 10 mg/kg, Table 6): superiority; Antianxiety effect (peroral 20 mg/kg): better effects than MDL-73005; Antianxiety effect, longevity [1]: 52.8; Antianxiety effect, longevity [2]: 48.2; Antianxiety effect, longevity [3]: 29.5

**Q.** Which results are given for O=C(NCCN1CCN(c2ncccn2)CC1)C12CC3CC(CC(C3)C1)C2 [WY-50324, reference compound]?
**A.** change in vivo at 20 mg/kg (peroral 20 mg/kg): 46.9 ± 6.3%; Antianxiety effect, longevity [1]: 57.8; Antianxiety effect, longevity [2]: 24.8; Antianxiety effect, longevity [3]: 11.2
